Values joined by “and” are separate entries in the source; they are usually repeats but may differ in a detail not shown here. Equal values may be shown once.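 Protocol summary: plate cells (96-well), add compound at 5 concentrations, incubate 48 h, interpolate endpoints linearly. GI50 is the concentration that inhibits growth by half. The concentration for full growth arrest is given as TGI.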
Experiments:
Experiment in all cases: growth of human tumour cells (NCI), 48 h
[1] = system: UO-31 renal
[2] = system: HCT-15 colon
[3] = system: HCC-2998 colon
[4] = system: IGROV1 ovarian
[5] = system: SN12C renal
[6] = system: CAKI-1 renal
[7] = system: M14 melanoma
[8] = system: U251 CNS
[9] = system: NCI-H226 lung
[10] = system: RXF 393 renal

Compound	GI50 [1]	TGI [1]	GI50 [2]	TGI [2]	GI50 [3]	GI50 [4]	TGI [4]	GI50 [5]	GI50 [6]	GI50 [7]	GI50 [8]	TGI [8]	GI50 [9]	TGI [9]	GI50 [10]	TGI [10]	TGI [3]	TGI [5]	TGI [6]	TGI [7]
COc1ccc(C2CC(c3ccc4ccccc4c3)=NN2c2nc(O)c(C3=c4cc(Cl)ccc4=NC3=O)s2)cc1 (stereo unspecified)	0.0193 µM and < 0.005 µM	0.0436 µM and < 0.005 µM	0.0342 µM	0.229 µM	0.0216 µM and < 0.005 µM	0.0254 µM	0.0736 µM	0.0264 µM and < 0.005 µM	0.036 µM and < 0.005 µM	0.0354 µM and < 0.005 µM	0.0199 µM and < 0.005 µM	0.0414 µM and < 0.005 µM	0.0208 µM	0.052 µM	0.0186 µM and < 0.005 µM	0.0389 µM and < 0.005 µM				
CCOC(=O)Nc1cc2c(c(N)n1)N=C(c1ccccc1)CN2	0.107 µM		< 0.0001 µM			< 0.0001 µM				< 0.0001 µM		1.42 µM	0.000221 µM			29.2 µM	0.0445 µM	37.8 µM	27.7 µM	> 49 µM
Cc1cc(=O)n2c(cc3cccccc32)n1		> 100 µM		> 100 µM			> 100 µM					> 100 µM		> 100 µM		> 100 µM	> 100 µM	> 100 µM	> 100 µM	> 100 µM
CN(C)c1ccc(/C=N/n2c(CCCCc3n[nH]c(=S)n3/N=C/c3ccc(N(C)C)cc3)n[nH]c2=S)cc1	> 100 µM	> 100 µM	> 100 µM	> 100 µM	> 100 µM	> 100 µM	> 100 µM	> 100 µM	> 100 µM	> 100 µM	74 µM	> 100 µM	> 100 µM	> 100 µM	> 100 µM	> 100 µM	> 100 µM	> 100 µM	> 100 µM	> 100 µM
COc1ccc(Cl)cc1Nc1nc(C(F)(F)F)ccc1C(=O)N/N=C/c1ccccc1Cl	3.18 µM	> 26.8 µM	0.754 µM	> 63.8 µM	1.97 µM	2.76 µM	> 24.7 µM	2.56 µM	0.994 µM	2.13 µM	1.57 µM	> 31 µM	1.45 µM	18.2 µM	0.455 µM	3.06 µM	19.2 µM	> 100 µM	8.19 µM	19.4 µM
C=C1C(=O)O[C@H]2C3OC3(C)CC/C=C(/C(=O)OC)[C@@H](OC(C)=O)[C@H](OC(=O)C3(C)OC3C)[C@H]12 (stereo partly specified)	2.29 µM and 2.04 µM and 2.66 µg/mL	6.69 µM and 9.13 µM and 5.8 µg/mL	899 nM and 3.85 µM and 0.482 µg/mL	2.78 µM and 32.2 µM and 2.13 µg/mL	3.65 µM and 2.5 µg/mL	1.47 µM and 3.2 µM and 2.29 µg/mL	3.17 µM and 14.6 µM and 5.62 µg/mL	1.5 µM and 2.97 µM and 2.45 µg/mL	206 nM and 1.12 µM and 0.579 µg/mL	1.5 µM and 850 nM and 0.499 µg/mL	3.73 µM and 5.25 µg/mL	12.7 µM and 14.9 µg/mL	1.6 µM and 8.12 µg/mL	3.25 µM and 31 µg/mL	364 nM and 190 nM and 0.407 µg/mL	838 nM and 531 nM and 0.951 µg/mL	12.4 µM and 4.62 µg/mL	4.68 µM and 10.4 µM and 6.03 µg/mL	478 nM and 2.35 µM and 1.57 µg/mL	3.13 µM and 2.4 µM and 1.29 µg/mL
CC(O)(c1ccc(OCCC[N+](C)(C)C)cc1)C(C)(O)c1ccc(OCCC[N+](C)(C)C)cc1 (stereo unspecified)		> 100 µM		> 100 µM			> 100 µM					> 100 µM		> 100 µM		> 100 µM	> 100 µM	> 100 µM	> 100 µM	> 100 µM
COC(=O)c1cc2c([nH]c3ccccc32)c(-c2nc3ccccc3cc2CO)n1	> 100 µM	> 100 µM	> 100 µM	> 100 µM	> 100 µM	> 100 µM	> 100 µM	> 100 µM	> 100 µM	> 100 µM	7.1 µM	> 100 µM	> 100 µM	> 100 µM	21.6 µM	> 100 µM	> 100 µM	> 100 µM	> 100 µM	> 100 µM
CCCCNP1(NCCCC)=NP(NCCCC)(NCCCC)=NP(NCCCC)(NCCCC)=NP(NCCCC)(NCCCC)=N1	2.81 µM	14.4 µM	21.2 µM	99.5 µM	0.304 µM	0.584 µM	11.6 µM	0.331 µM	9.3 µM	1.08 µM	0.296 µM	3.81 µM	1.72 µM	7.91 µM	1.97 µM	10.2 µM	3.7 µM	12.5 µM	36 µM	5.23 µM
C[C@H]1[C@H](C)CC[C@]2(C(=O)O)CCC3(COC(=O)/C=C/c4ccc(O)cc4)C(=CCC4[C@@]5(C)CC[C@H](O)C(C)(C)C5CC[C@]43C)[C@H]12 (stereo partly specified)		15.6 µM		15.7 µM			15.4 µM					9.92 µM		23.4 µM		23.5 µM	18.2 µM	20.8 µM	22.1 µM	24.9 µM
N#Cc1ccc(C(=O)c2cnn(-c3ccc(F)cc3)c2N)cc1	> 25 µM	> 25 µM	> 25 µM	> 25 µM	> 25 µM	> 25 µM	> 25 µM	> 25 µM	> 25 µM	> 25 µM	> 23.1 µM	> 25 µM	> 25 µM	> 25 µM	> 25 µM	> 25 µM	> 25 µM	> 25 µM	> 25 µM	> 25 µM
CN(CO)c1nc(N(C)CO)nc(N(C)CO)n1	27.6 µM	50.3 µM and 56.2 µM	25.8 µM	65.5 µM and 37.1 µM	27.9 µM and 25.5 µM	16.1 µM	67.1 µM and 79.1 µM	27.6 µM and 19.5 µM	26.9 µM	19.5 µM	29.6 µM	72.8 µM and 46.2 µM	24.8 µM and 9.99 µM	> 70.3 µM and 21.4 µM	18 µM	34.1 µM and 22.9 µM	67.8 µM and 52.4 µM	70.5 µM and 57.8 µM	77.4 µM and 65.7 µM	36.4 µM and 42.8 µM
Fc1ccc(-c2c(-c3ccncc3)[nH]c3cccnc23)cc1	3.2 µM	> 25 µM	15.4 µM	> 25 µM	> 25 µM	8.45 µM	> 25 µM	18.8 µM	7.43 µM	> 25 µM	> 25 µM	> 25 µM	> 15.2 µM	> 25 µM	> 20.4 µM	> 25 µM	> 25 µM	> 25 µM	> 25 µM	> 25 µM
Oc1ccccc1/C=N\Nc1ccccc1	2.35 µM	36.3 µM	4.16 µM	26.4 µM	3.45 µM	21.7 µM	> 100 µM	3.41 µM	1.64 µM	3.7 µM	10.2 µM	65.6 µM	3.13 µM	31.4 µM	19.1 µM	77.9 µM	15.5 µM	> 100 µM	21.4 µM	19.4 µM
CCc1nc(N)nc(N)c1-c1ccc(N(C)Cc2ccccc2)c([N+](=O)[O-])c1		16 µM		9.86 µM			25.8 µM					24.5 µM		23.2 µM		22.9 µM	8.73 µM	41.7 µM	25.4 µM	11.3 µM
O=C1/C=C/[C@@H](O)[C@@H]2C[C@@H](O)C[C@H]2/C=C/CCC[C@H](CCc2ccc(NC(=S)Nc3ccc4c(c3)C(=O)OC43c4ccc(O)cc4Oc4cc(O)ccc43)cc2)O1	0.335 µM	> 100 µM	0.889 µM	> 100 µM	0.302 µM	0.622 µM	2.69 µM	2.17 µM	1.65 µM	0.36 µM	0.47 µM	> 100 µM	0.287 µM	0.783 µM	0.266 µM	0.736 µM		> 100 µM	> 100 µM	> 49.2 µM

— PubChem BioAssay (NCI)
